From article PMC12023841, “Unlocking the Gates: A Novel Diagnostic Molecule for Quantifying Efflux Levels in Gram‐Positive Bacteria” (Advanced Healthcare Materials, 2025)
Where “and” joins values, the source holds several entries; their conditions need not be identical. Identical values can stand only once. Entries after “also recorded” stand apart in the source; their conditions may differ. Like-named read-outs stand apart in the source and are kept apart here.

Assays:
[1] = tested on: Staphylococcus aureus ATCC 25923 (Reference, basal); test: MIC, broth microdilution (CLSI); type: cell-based; settings: ATCC25923
[2] = tested on: SA 1199‐B (norA overexpressing); test: microbe, parasite or virus in culture; type: cell-based, Staphylococcus aureus; settings: from Table 1
[3] = tested on: Staphylococcus aureus efflux mutants and clinical strains
[4] = tested on: SA 1199 (Wild‐type, basal); test: MIC, broth microdilution (CLSI); type: cell-based; settings: Staphylococcus aureus
[5] = Solution‐state stability test in MH‐II broth; type: physicochemical; settings: 512–1 µg mL^−1, 37 °C for a day, centrifuged
Procedure: Before accessing the minimal inhibitory concentration (MIC), each phenazinium derivative was subjected to a solution‐state stability test. For this experiment, each derivative was solubilized in DMSO to achieve a primary stock solution (20 mg mL^−1). This stock was further diluted in MilliQ to achieve a working stock solution (10 mg mL^−1). […] The tubes were placed in an incubator at 37 °C for a day and later centrifuged at 25 000 rpm for 25 min.

[6] = tested on: HaCaT keratinocytes cells; test: Micronucleus assay; type: cell-based, Human
[7] = Fluorescence intensity measurement of phenazinium derivatives; type: physicochemical; settings: 1 µg mL^−1
Procedure: A stock solution of synthesized phenazinium compounds (10 mg mL^-1) was prepared in DMSO solvent. […] An aliquot (100 μL) of this working stock was then added to the black flat bottomed, half-area, 96-well microplates (CELLSTAR, Greiner Bio-One, France). The plate was then placed on a fluorescence spectrometer (Tecan, Infinite […], Lyon, France) and scanned for emission spectra (560-800 nm) at a constant excitation […].

[8] = tested on: HaCaT keratinocytes cells; test: In-vitro cytotoxicity test, Neutral Red uptake; type: cell-based, Human
Procedure: (§1) Method: The in-vitro cytotoxicity test assessed cell viability based on Neutral Red uptake, a dye that accumulates in lysosomes and decreases in response to membrane damage. HaCaT keratinocytes were cultured in DMEM with 10% calf serum and incubated at 37°C, 5% CO₂. Cells were seeded in 96-well plates, treated with eight concentrations of the 5a4, and incubated for 24 hours. After washing, cells were exposed to Neutral Red medium for 3 hours, followed by washing and destaining. Optical density (OD540) was measured using a fluorescence reader, and IC50 values were calculated using Phototox Version 2.0, comparing treated wells to untreated controls.^[10]

[9] = In-vitro cytotoxicity test, Neutral Red uptake; type: cell-based, Human; settings: human, HaCaT keratinocytes, 24 hours, read-out: Cell viability (% as compared to the negative control), replicates
Procedure: as §1

[10] = 0.025 µg/ml, with UVA/visible Irradiation
[11] = 0.05 µg/ml, with UVA/visible Irradiation
[12] = 0.1 µg/ml, with UVA/visible Irradiation
[13] = 0.25 µg/ml, with UVA/visible Irradiation

CCCCNc1ccc2nc3cc(NCCOC)c(N)cc3[n+](CCC)c2c1 [5a4]
MIC [1]: 2 mg/L
MIC difference between NorA wild‐type, overexpressing and deleted mutants [2]: fourfold or greater difference
Efflux detection method 5a4 ([3]; strain ATCC25923): Negative
Efflux detection method 5a4 ([3]; strain ATCC25923_EtBr): Positive
Efflux detection method 5a4 ([3]; strain BIOS-H1): Negative
Efflux detection method 5a4 ([3]; strain BIOS-H2): Negative
Efflux detection method 5a4 ([3]; strain BIOS-H3): Negative
Efflux detection method 5a4 ([3]; strain BIOS-H5): Negative
Efflux detection method 5a4 ([3]; strain BIOS-H6): Negative
Efflux detection method 5a4 ([3]; strain BIOS-H12): Negative
Efflux detection method 5a4 ([3]; strain BIOS-H13): Negative
Efflux detection method 5a4 ([3]; strain BIOS-H17): Negative
Efflux detection method 5a4 ([3]; strain BIOS-H20): Negative
Efflux detection method 5a4 ([3]; strain BIOS-H21): Negative
Efflux detection method 5a4 ([3]; strain BIOS-H22): Negative
Efflux detection method 5a4 ([3]; strain BIOS-H25): Negative
Efflux detection method 5a4 ([3]; strain BIOS-H28): Negative
Efflux detection method 5a4 ([3]; strain BIOS-H29): Negative
Efflux detection method 5a4 ([3]; strain BIOS-H30): Negative
Efflux detection method 5a4 ([3]; strain BIOS-H32): Negative
Efflux detection method 5a4 ([3]; strain BIOS-V21): Negative
Efflux detection method 5a4 ([3]; strain BIOS-V31): Negative
Efflux detection method 5a4 ([3]; strain BIOS-V60): Negative
Efflux detection method 5a4 ([3]; strain BIOS-V61): Negative
Efflux detection method 5a4 ([3]; strain BIOS-V62): Negative
Efflux detection method 5a4 ([3]; strain BIOS-V74): Negative
Efflux detection method 5a4 ([3]; strain BIOS-V75): Negative
Efflux detection method 5a4 ([3]; strain BIOS-V85): Negative
Efflux detection method 5a4 ([3]; strain BIOS-V118): Negative
Efflux detection method 5a4 ([3]; strain BIOS-V128): Negative
Efflux detection method 5a4 ([3]; strain BIOS-V147): Negative
Efflux detection method 5a4 ([3]; strain BIOS-V151): Negative
Efflux detection method 5a4 ([3]; strain BIOS-V156): Negative
Efflux detection method 5a4 ([3]; strain BIOS-V157): Negative
Efflux detection method 5a4 ([3]; strain BIOS-V158): Negative
Efflux detection method 5a4 ([3]; strain BIOS-V203): Negative
Efflux detection method 5a4 ([3]; strain BIOS-V245): Negative
Efflux detection method 5a4 ([3]; strain BIOS-V250): Negative
Efflux detection method 5a4 ([3]; strain BIOS-V257): Negative
Efflux detection method 5a4 ([3]; strain BIOS-V279): Negative
Efflux detection method 5a4 ([3]; strain BIOS-V295): Negative
Efflux detection method 5a4 ([3]; strain SA-1199): Negative
Efflux detection method 5a4 ([3]; strain SA-1199B): Positive
Efflux detection method 5a4 ([3]; strain SA-K1712): Negative
Efflux detection method 5a4 ([3]; strain SA-K1748): Positive
Efflux detection method 5a4 ([3]; strain SA-K1758): Negative
Efflux detection method 5a4 ([3]; strain SM 1): Positive
Efflux detection method 5a4 ([3]; strain SM 2): Negative
Efflux detection method 5a4 ([3]; strain SM 3): Negative
Efflux detection method 5a4 ([3]; strain SM 4): Negative
Efflux detection method 5a4 ([3]; strain SM 5): Negative
Efflux detection method 5a4 ([3]; strain SM 6): Negative
Efflux detection method 5a4 ([3]; strain SM 7): Negative
Efflux detection method 5a4 ([3]; strain SM 8): Negative
Efflux detection method 5a4 (S. epidermidis strains; […]): Negative
Efflux detection method 5a4 (S. epidermidis strains; strain ATCC12228): Negative
Efflux detection method 5a4 (S. epidermidis strains; strain ATCC12228_EtBr): Positive
Efflux detection method 5a4 (S. epidermidis strains; strain BIOS-V24): Negative
Efflux detection method 5a4 (S. epidermidis strains; strain BIOS-V282): Positive
MIC [4]: 2 mg/L
Solution state stability (concentration at which visible precipitation was observed) [5]: excellent solubility and stability; also recorded: Stable
genotoxicity (in words) [6]: no clear genotoxicity
% PI (Proliferative Index) [6, 10]: 99.2%
MNC (micronucleated cells) [6, 10]: 11 ± 1.4 per 1,000
% PI (Proliferative Index) ([6]; 0.025 µg/ml, without S9 mix): 99.8%
MNC (micronucleated cells) ([6]; 0.025 µg/ml, without S9 mix): 9 ± 1.4 per 1,000
% PI (Proliferative Index) [6, 11]: 94.6%
MNC (micronucleated cells) [6, 11]: 9 ± 2.1 per 1,000
% PI (Proliferative Index) ([6]; 0.05 µg/ml, without S9 mix): 88.2%
MNC (micronucleated cells) ([6]; 0.05 µg/ml, without S9 mix): 8.5 ± 0.7 per 1,000
% PI (Proliferative Index) [6, 12]: 92.1%
MNC (micronucleated cells) [6, 12]: 9.5 ± 0.7 per 1,000
% PI (Proliferative Index) ([6]; 0.1 µg/ml, without S9 mix): 78.5%
MNC (micronucleated cells) ([6]; 0.1 µg/ml, without S9 mix): 11 ± 1.4 per 1,000
% PI (Proliferative Index) [6, 13]: 89.2%
MNC (micronucleated cells) [6, 13]: 11.5 ± 2.1 per 1,000
% PI (Proliferative Index) ([6]; 0.25 µg/ml, without S9 mix): 56.1%
MNC (micronucleated cells) ([6]; 0.25 µg/ml, without S9 mix): 10 ± 1.4 per 1,000
% PI (Proliferative Index) ([6]; 0.5 µg/ml, with UVA/visible Irradiation): TOXIC
% PI (Proliferative Index) ([6]; 0.5 µg/ml, without S9 mix): TOXIC
MNC (micronucleated cells) ([6]; 0.5 µg/ml, without S9 mix): TOXIC
phototoxicity (in words) ([6]; UVA/visible light exposure): Slight phototoxicity
fluorescence intensity (rank among derivatives) [7]: maximum fluorescence intensity
cytotoxicity on HaCaT (in words) [8]: dose‐dependent cytotoxicity
Cell viability (% as compared to the negative control), replicates ([8]; 0.00025 µg/ml, 24 hours): 98.73% and 100.16% and 98.52%
Cell viability (% as compared to the negative control), replicates ([8]; 0.0005 µg/ml, 24 hours): 98.86% and 96.05%
Cell viability (% as compared to the negative control), replicates ([8]; 0.001 µg/ml, 24 hours): 86.83% and 87.15%
Cell viability (% as compared to the negative control), replicates ([8]; 0.025 µg/ml, 24 hours): 80.96% and 90.16%
Cell viability (% as compared to the negative control), replicates ([8]; 0.05 µg/ml, 24 hours): 71.87% and 67.22%
Cell viability (% as compared to the negative control), replicates ([8]; 0.1 µg/ml, 24 hours): 60.91% and 61.94%
Cell viability (% as compared to the negative control), replicates ([8]; 0.25 µg/ml, 24 hours): 43.67% and 45.37%
Cell viability (% as compared to the negative control), replicates ([8]; 0.5 µg/ml, 24 hours): 36.42% and 39.37%
Cell viability (% as compared to the negative control), replicates ([8]; 1 µg/ml, 24 hours): 8.29% and 13.84%
Cell viability (% as compared to the negative control), replicates ([8]; 2.5 µg/ml, 24 hours): 7.17% and 8.13%
IC50 ([8]; Homo sapiens, HaCaT, Neutral Red uptake, 24 hours, read-out: IC50 (HaCaT cell viability)): 0.1 to 0.25 mg/L
viability at 24 h, 0.00025 µg/ml ([9]; 0.00025 µg/ml): > 96%
viability at 24 h, 0.0005 µg/ml ([9]; 0.0005 µg/ml): 98.9%
viability at 24 h, 0.001 µg/ml ([9]; 0.001 µg/ml): 87.3%
viability at 24 h, 0.025 µg/ml ([9]; 0.025 µg/ml): 80%
viability at 24 h, 0.05 µg/ml ([9]; 0.05 µg/ml): 66.6%
viability at 24 h, 0.1 µg/ml ([9]; 0.1 µg/ml): 57.8%
viability at 24 h, 0.25 µg/ml ([9]; 0.25 µg/ml): 43.4%
viability at 24 h, 0.5 µg/ml ([9]; 0.5 µg/ml): 37.3%
viability at 24 h, 1 µg/ml ([9]; 1 µg/ml): 11.6%
viability at 24 h, 2.5 µg/ml ([9]; 2.5 µg/ml): ~7.91%
